The conditions of data set [1]: cited from earlier work.
The test system of data set [2] is AT84 murine head and neck squamous cell carcinoma cell line. Description: Anti-proliferation study, AT84 cells (Resazurin Blue). To be noted: 72 hours, n=7-8. In kind it is cell-based, mouse. The protocol: AT84 cells were derived from a spontaneous squamous cell carcinoma in the oral mucosa of a C3H mouse (19,20) and were gifted by Aldo Venuti (Regina Elena National Cancer Institute, Rome, Italy). Cells tested negative for interspecies contamination (Idexx BioResearch, CellCheck STR profiling). Cells tested negative for rodent pathogens (Idexx BioResearch, IMPACT I PCR profile). Cells tested negative for Mycoplasm contamination (Lonza, Basel, Switzerland, MycoAlert test kit). Cells were cultured in RPMI-1640 media (Gibco, Thermo Fisher Scientific, Waltham, Mass.) supplemented with 10% FBS (Corning Corning, N.Y.), and 100 U/mL penicillin/100 μg/mL streptomycin (HyClone, Thermo Fisher Scientific, Waltham, Mass.) in a humidified incubator at 37° C. and 5% CO2.
AT84 cells were maintained in RPMI-1640 media (Gibco) with 10% fetal bovine serum (Corning), and 100 U/mL penicillin/100 μg/mL streptomycin (HyClone) in a humidified incubator at 37° C. and 5% CO2. Cells were seeded into 96-well plates (3,000 cells/well in 90 ul media) and allowed to attach overnight. […] Fluorescence (λex 550 nm, λem 605 nm) was quantified with a SpectraMax Gemini XS plate-reader (Molecular Devices, Sunnyvale, Calif.). […] Data from at least five separate experiments was analyzed using non-linear regression (GraphPad Prism 5.0) to generate […].

For data set [3], the system named is calreticulin (CRT). Kind of data set: Calreticulin translocation in AT84 cells transfected with mouse CRT-HaloTag-KDEL fusion protein. To be noted: 500 μM, 12-15 hours (overnight). It counts as cell-based. An excerpt:
Plasmid: The full cDNA sequence of the insert was published by Golden et al. (21) and codes for a mouse calreticulin-HaloTag®-KDEL fusion protein. The cDNA sequence includes Mus musculus calreticulin (Accession BC003453, Version BC003453.1, CDS 37-1286), the HaloTag® vector (Accession HM157289, Version HM157289.1, CDS 197-1081), and a KDEL sequence. This cDNA sequence was inserted into a mammalian expression vector, pD643-Rc, by DNA2.0 (now ATUM, Newark, Calif.). The vector includes a CayenneRFP reporter protein (Ex:554 nm/Em:590 nm) used to visualize positively transfected cells.
AT84 cells were plated in 6-well culture plates and allowed to grow to ˜90% confluence. Cells were transfected with a plasmid containing a mouse calreticulin-HaloTag®-KDEL fusion protein and a CayenneRFP reporter protein using lipofectamine (Invitrogen, Carlsbad, Calif.). Five microliters of lipofectamine was added to 150 μl Opti-MEM (Gibco, Thermo Fisher Scientific, Waltham, Mass.). Ten micrograms of plasmid DNA was added to 150 μl Opti-MEM. Both solutions were incubated at room temperature for 5 minutes. DNA solution was added to lipofectamine solution and incubated for 20 minutes at room temperature. During incubation, media on the cells were replaced with serum-free media (2 mL). 250 μl of DNA:lipofectamine solution was added dropwise to each well, which contained 2 mL of serum-free media. […]

Data set [4] deals with calf thymus DNAs. To be noted: cited from earlier work.
Data set [5] has as its system naturally occurring cancers. Description: Open-label compassionate-care clinical trial of intralesional therapy in pet dogs. In kind it is in vivo, dog. The note with it: proposed dose level. The protocol:
An open-label, compassionate-care clinical trial was conducted in pet dogs with various types of cancer to evaluate the feasibility of intralesional delivery of Pt(IV)-toco/HA-toco composition as chemotherapy. The most common types of cancer include squamous cell carcinoma, soft tissue sarcoma, and oral melanoma. Typical exclusion criteria such as small breeds, large tumor burden, short life expectancy, metastatic disease, and certain pre-existing conditions (e.g., Cushing's disease) were not implemented in this study.
The reported study was conducted in 18 veterinary hospitals in the Kansas City area. Most pets received either Pt(IV)-toco/HA-toco or HylaPlat treatment at 3-week intervals for up to 10 treatments, ranging from 1 to 17.5 mg/m^2 on cisplatin basis. Clinical chemistry and hematology were obtained before and after each treatment to evaluate the tolerability of the therapy. A physical exam including measurements of tumor(s) was performed approximately every 3-weeks to monitor the response status of the subjects.

Data set [6] can be described thus: Ongoing tolerability studies in rabbits. It counts as in vivo. The note with it: proposed dose level.
The subject of data set [7] is AT84 allografts. Description: Immunocompetent tumor model: orthotopic AT84 allografts in C3H mice. It counts as in vivo. The protocol: Wildtype C3H mice (Charles River Strain 025, 6-8 weeks old, 20-25 g) were used for in vivo tumor studies. Both male and female mice were used in the studies. […] Mice were anesthetized using 5% isoflurane in O2 for 5 minutes. One million AT84 cells in 50 μl PBS were injected subcutaneous (s.c.) into the floor of the mouth via an extra-oral route of C3H mice to obtain orthotopic allograft tumors (19,20). […] Under isoflurane anesthesia, Pt(IV)-toco/HA-toco composition (3 mg/kg on Pt(IV)-toco basis) or vehicle (50 μl hyaluronan-tocopherol, 16.7 mg/mL) was injected intratumoral on days 4, 11, and 18 after the tumor cell injection. Tumor size was calculated: tumor volume (mm^3)=0.52×(width)^2×length, where length is the longer of two perpendicular dimensions.

In data set [8] the test system is MDA-1986 xenografts. Kind of data set: Immunodeficient tumor model: orthotopic MDA-1986 xenografts in nude mice. It counts as in vivo. The protocol:
Nude mice (Charles River Ath/nu, 6-8 weeks old, 20-25 g) were used for in vivo tumor studies. Both male and female mice were used in the studies. […] Mice were anesthetized using 5% isoflurane in O2 for 5 minutes. One million MDA-1986 cells in 50 μl PBS were injected subcutaneous into the left cheek of nude mice to obtain orthotopic xenograft tumors (13,15). Treatment began when tumors reached 75 mm^3. Under isoflurane anesthesia, Pt(IV)-toco/HA-toco composition (3 mg/kg on Pt(IV)-toco basis) or vehicle (1.5 MDa hyaluronan, 16.7 mg/mL) was injected intratumoral on days 14, 21, and 28 after the tumor cell injection. Tumor size was calculated using the same equation as stated in the C3H model.

The mark [9] stands for this setting: last pair of measurements vs control, 3 mg/kg intratumoral once per week for 3 weeks.

Entries after “also recorded” stand apart in the source; their conditions may differ.

`N.N.[Cl][Pt][Cl]` [cisplatin, Cis-Dichlorodiamine platinum (II)]: the safety in cats result in data set [1] was “hydrothorax, pulmonary and mediastinal edema”. Besides, the IC50 in data set [2] was 3000 ± 260 nM. In addition, in data set [3], the “CRT translocation to the cell surface (indicator of ICD)” value is “does not cause CRT translocation to the membrane; also recorded: does not show CRT translocation”.
Take `O=C1[O][Pt]2([NH][C@@H]3CCCC[C@H]3[NH]2)[O]C1=O` [oxaliplatin, Oxaliplatin]: in data set [3], the “CRT translocation to the cell surface (indicator of ICD)” value is on record as “membrane translocation of CRT is observed; also recorded: show CRT translocation”. Further, in data set [4], the “formation of Pt-DNA adducts relative to cisplatin” value is reported as “approximately one tenth”.
For the compound `N.N.O=C([O-])C1(C(=O)[O-])CCC1.[Pt+2]` [carboplatin], in data set [1], the safety in cats entry is reported as “may be safe”.
As to Pt(IV)-Su-Gly-Toco [Pt(IV)-toco], the “dose-limiting toxicities (renal dysfunction, ototoxicity, peripheral neuropathy)” value in data set [5] and in data set [6] was “did not cause any dose-limiting toxicities” in each case. For the same compound, the “tumor volume, mean±SEM, last pair of measurements” value in data set [7] (3 mg/kg on Pt(IV)-toco basis intratumoral, days 4, 11, 18) was determined as 1024±129 mm^3. In data set [7] (by the time all control mice have succumbed), this compound returned a survival rate of 100%. Further, the tumor inhibition in data set [7] (setting [9]) stood at 49%; in data set [8] (setting [9]), 43%. The “tumor volume, mean SEM, last pair of measurements” value in data set [8] (3 mg/kg on Pt(IV)-toco basis intratumoral, days 14, 21, 28) stood at 812±150 mm^3.
